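1) Cells in 96-well plates. 2) Compound, 48 h, 5 concentrations. 3) Linear interpolation between surrounding doses. 4) Unreached endpoint = highest concentration. GI50: concentration for 50% inhibition of growth. TGI denotes the concentration required for complete inhibition of growth.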
Legend:
Experiment in all cases: NCI-60 cell line screen, 48 h
T-47D breast = test system: T-47D breast
HCT-15 colon = test system: HCT-15 colon
SW-620 colon = test system: SW-620 colon
U251 CNS = test system: U251 CNS
NCI-H460 lung = test system: NCI-H460 lung
A498 renal = test system: A498 renal
SK-OV-3 ovarian = test system: SK-OV-3 ovarian
DU-145 prostate = test system: DU-145 prostate
OVCAR-5 ovarian = test system: OVCAR-5 ovarian
NCI-H522 lung = test system: NCI-H522 lung
HOP-62 NSCLC = test system: HOP-62 NSCLC
RPMI-8226 leukemia = test system: RPMI-8226 leukemia
KM12 colon = test system: KM12 colon
MDA-MB-435 = test system: MDA-MB-435
SF-539 CNS = test system: SF-539 CNS
SNB-75 CNS = test system: SNB-75 CNS
UACC-62 melanoma = test system: UACC-62 melanoma
SF-268 CNS = test system: SF-268 CNS
OVCAR-8 ovarian = test system: OVCAR-8 ovarian
COLO 205 colon = test system: COLO 205 colon
A549 NSCLC = test system: A549 NSCLC
SR leukemia = test system: SR leukemia
BT-549 breast = test system: BT-549 breast
HL-60(TB) leukemia = test system: HL-60(TB) leukemia
ACHN renal = test system: ACHN renal
UO-31 renal = test system: UO-31 renal
SNB-19 CNS = test system: SNB-19 CNS
HCT-116 colon = test system: HCT-116 colon
786-0 renal = test system: 786-0 renal
OVCAR-4 ovarian = test system: OVCAR-4 ovarian
K-562 leukemia = test system: K-562 leukemia
SK-MEL-28 melanoma = test system: SK-MEL-28 melanoma
HT29 colon = test system: HT29 colon
MOLT-4 leukemia = test system: MOLT-4 leukemia
EKVX NSCLC = test system: EKVX NSCLC
SF-295 CNS = test system: SF-295 CNS
PC-3 prostate = test system: PC-3 prostate
IGROV1 ovarian = test system: IGROV1 ovarian
CAKI-1 renal = test system: CAKI-1 renal
HCC-2998 colon = test system: HCC-2998 colon
NCI-H23 lung = test system: NCI-H23 lung
CCRF-CEM leukemia = test system: CCRF-CEM leukemia
HOP-92 NSCLC = test system: HOP-92 NSCLC
UACC-257 melanoma = test system: UACC-257 melanoma
MALME-3M melanoma = test system: MALME-3M melanoma
TK-10 renal = test system: TK-10 renal
HS 578T breast = test system: HS 578T breast
NCI-H226 lung = test system: NCI-H226 lung
MCF7 breast = test system: MCF7 breast
RXF 393 renal = test system: RXF 393 renal
SK-MEL-2 melanoma = test system: SK-MEL-2 melanoma
LOX IMVI melanoma = test system: LOX IMVI melanoma
MDA-MB-231 breast = test system: MDA-MB-231 breast
SK-MEL-5 melanoma = test system: SK-MEL-5 melanoma
OVCAR-3 ovarian = test system: OVCAR-3 ovarian
SN12C renal = test system: SN12C renal
M14 melanoma = test system: M14 melanoma
NCI/ADR-RES ovarian = test system: NCI/ADR-RES ovarian

Compound `CNC(=O)c1ccccc1Nc1cc(Nc2ccc(N3CCOCC3)cc2OC)ncc1C(F)(F)F` has a GI50 (T-47D breast) of 14.5 µM, a TGI (T-47D breast) of 59.8 µM and a GI50 (HCT-15 colon) of 3.09 µM. The TGI (HCT-15 colon) was > 95.7 µM, the GI50 (SW-620 colon) was 1.92 µM and the TGI (SW-620 colon) was > 65.6 µM. The GI50 (U251 CNS) was 10.4 µM, the TGI (U251 CNS) was > 87.6 µM and the GI50 (NCI-H460 lung) was 2.54 µM. For the same compound, the TGI (NCI-H460 lung) was 19.4 µM, the GI50 (A498 renal) was 2.29 µM and the TGI (A498 renal) was 10.5 µM. The GI50 (SK-OV-3 ovarian) was 5.44 µM, the TGI (SK-OV-3 ovarian) was 57.6 µM and the GI50 (DU-145 prostate) was 3.4 µM. The TGI (DU-145 prostate) was > 81.5 µM, the GI50 (OVCAR-5 ovarian) was 0.637 µM and the TGI (OVCAR-5 ovarian) was > 100 µM. For the same compound, the GI50 (NCI-H522 lung) was 7.67 µM, the TGI (NCI-H522 lung) was 37.6 µM and the GI50 (HOP-62 NSCLC) was 0.296 µM. It also gave a TGI (HOP-62 NSCLC) of 52.5 µM, a GI50 (RPMI-8226 leukemia) of 3.61 µM and a TGI (RPMI-8226 leukemia) of 48 µM. It also gave a GI50 (KM12 colon) of 1.18 µM, a TGI (KM12 colon) of 11.6 µM and a GI50 (MDA-MB-435) of 0.815 µM. The TGI (MDA-MB-435) was > 94.3 µM, the GI50 (SF-539 CNS) was 6.37 µM and the TGI (SF-539 CNS) was 34 µM. The GI50 (SNB-75 CNS) was 1.31 µM, the TGI (SNB-75 CNS) was 43.5 µM and the GI50 (UACC-62 melanoma) was 0.419 µM. The TGI (UACC-62 melanoma) was 20.4 µM, the GI50 (SF-268 CNS) was 4.86 µM and the TGI (SF-268 CNS) was 80.9 µM. The GI50 (OVCAR-8 ovarian) was 6.88 µM, the TGI (OVCAR-8 ovarian) was > 100 µM and the GI50 (COLO 205 colon) was 0.161 µM. It also gave a TGI (COLO 205 colon) of 1.37 µM, a GI50 (A549 NSCLC) of 1.7 µM and a TGI (A549 NSCLC) of 22.7 µM. The GI50 (SR leukemia) was 0.248 µM, the TGI (SR leukemia) was 12.4 µM and the GI50 (BT-549 breast) was 8.14 µM. For the same compound, the TGI (BT-549 breast) was 41.8 µM, the GI50 (HL-60(TB) leukemia) was 1 µM and the TGI (HL-60(TB) leukemia) was 24.8 µM. The GI50 (ACHN renal) was 5.27 µM, the TGI (ACHN renal) was > 84.5 µM and the GI50 (UO-31 renal) was 1.91 µM. For the same compound, the TGI (UO-31 renal) was 17.8 µM, the GI50 (SNB-19 CNS) was 15.6 µM and the TGI (SNB-19 CNS) was > 100 µM. For the same compound, the GI50 (HCT-116 colon) was 1.94 µM, the TGI (HCT-116 colon) was 19.1 µM and the GI50 (786-0 renal) was 4.12 µM. The TGI (786-0 renal) was 34.6 µM, the GI50 (OVCAR-4 ovarian) was 3.24 µM and the TGI (OVCAR-4 ovarian) was > 100 µM. The GI50 (K-562 leukemia) was 5 µM, the TGI (K-562 leukemia) was > 100 µM and the GI50 (SK-MEL-28 melanoma) was 1.85 µM. The TGI (SK-MEL-28 melanoma) was > 83.8 µM, the GI50 (HT29 colon) was 0.333 µM and the TGI (HT29 colon) was 15.4 µM. For the same compound, the GI50 (MOLT-4 leukemia) was 6.64 µM, the TGI (MOLT-4 leukemia) was > 86.8 µM and the GI50 (EKVX NSCLC) was 0.341 µM. The TGI (EKVX NSCLC) was 64.8 µM, the GI50 (SF-295 CNS) was 1.07 µM and the TGI (SF-295 CNS) was 41.8 µM. The GI50 (PC-3 prostate) was 18.6 µM, the TGI (PC-3 prostate) was > 100 µM and the GI50 (IGROV1 ovarian) was 2.28 µM. For the same compound, the TGI (IGROV1 ovarian) was > 100 µM, the GI50 (CAKI-1 renal) was 1.64 µM and the TGI (CAKI-1 renal) was > 54.6 µM. For the same compound, the GI50 (HCC-2998 colon) was 1.68 µM, the TGI (HCC-2998 colon) was 62.4 µM and the GI50 (NCI-H23 lung) was 0.757 µM. It also gave a TGI (NCI-H23 lung) of 60.7 µM, a GI50 (CCRF-CEM leukemia) of 8.49 µM and a TGI (CCRF-CEM leukemia) of 97.8 µM. For the same compound, the GI50 (HOP-92 NSCLC) was 0.011 µM, the TGI (HOP-92 NSCLC) was 0.172 µM and the GI50 (UACC-257 melanoma) was 0.346 µM. It also gave a TGI (UACC-257 melanoma) of 63.7 µM, a GI50 (MALME-3M melanoma) of 0.264 µM and a TGI (MALME-3M melanoma) of 63.6 µM. For the same compound, the GI50 (TK-10 renal) was 1.23 µM, the TGI (TK-10 renal) was 40.2 µM and the GI50 (HS 578T breast) was 13.5 µM. For the same compound, the TGI (HS 578T breast) was > 87.6 µM, the GI50 (NCI-H226 lung) was 2.42 µM and the TGI (NCI-H226 lung) was 55.6 µM. The GI50 (MCF7 breast) was 0.296 µM, the TGI (MCF7 breast) was 34.5 µM and the GI50 (RXF 393 renal) was 3.08 µM. The TGI (RXF 393 renal) was 20 µM, the GI50 (SK-MEL-2 melanoma) was 3.82 µM and the TGI (SK-MEL-2 melanoma) was 24.9 µM. The GI50 (LOX IMVI melanoma) was 1.45 µM, the TGI (LOX IMVI melanoma) was 18.5 µM and the GI50 (MDA-MB-231 breast) was 2.7 µM. It also gave a TGI (MDA-MB-231 breast) of 47.1 µM, a GI50 (SK-MEL-5 melanoma) of 4.55 µM and a TGI (SK-MEL-5 melanoma) of 22.1 µM. For the same compound, the GI50 (OVCAR-3 ovarian) was 13.1 µM, the TGI (OVCAR-3 ovarian) was > 85.3 µM and the GI50 (SN12C renal) was 12.2 µM. For the same compound, the TGI (SN12C renal) was > 81.5 µM, the GI50 (M14 melanoma) was 0.739 µM and the TGI (M14 melanoma) was 32.2 µM. For the same compound, the GI50 (NCI/ADR-RES ovarian) was 2.82 µM and the TGI (NCI/ADR-RES ovarian) was > 68.3 µM.

— PubChem BioAssay (NCI)
